ChEMBL document CHEMBL4619705, “Conjugation of peptides to short-acyl-chain ceramides for delivery across mucosal cell barriers” (Bioorg Med Chem Lett, 2020)

assay: Drug transport in MDCK2 cells assessed as transcytosis across epithelial monolayers at 37 degree C measured after 3 hrs by transwell assay; type: ADME, cell-based, Canis lupus familiaris; conditions: dog, mdck-ii

Point of comparison: `CCCCCCCCCCCCC/C=C\[C@@H](O)[C@H](/C=N\OCC(=O)NCCCC[C@@H](NC(=O)CNC(=O)[C@@H](CO)NC(=O)CNC(=O)[C@@H](CCCNC(=N)N)NC(=O)CNC(=O)[C@@H](Cc1ccc(O)cc1)NC(=O)CNC(=O)[C@@H](CO)NC(=O)CNC(=O)[C@@H](CCCCNC(=O)CCCC[C@@H]1SC[C@@H]2NC(=O)N[C@@H]21)NC(=O)[C@H](N)Cc1cn(CCCCCCNC(=O)c2ccc(-c3c4ccc(=N)c(S(=O)(=O)O)c-4oc4c(S(=O)(=O)O)c(N)ccc34)c(C(=O)O)c2)nn1)C(N)=O)NC(=O)CCCCC`, Drug transport 11.4%. Against it:
- N=C(N)NCCC[C@@H](NC(=O)CNC(=O)[C@@H](Cc1ccc(O)cc1)NC(=O)CNC(=O)[C@@H](CO)NC(=O)CNC(=O)[C@@H](CCCCNC(=O)CCCC[C@@H]1SC[C@@H]2NC(=O)N[C@@H]21)NC(=O)[C@H](N)Cc1cn(CCCCCCNC(=O)c2ccc(-c3c4ccc(=N)c(S(=O)(=O)O)c-4oc4c(S(=O)(=O)O)c(N)ccc34)c(C(=O)O)c2)nn1)C(=O)NCC(=O)N[C@H](CO)C(=O)NCC(=O)N[C@H](CCCCNC(=O)CON)C(N)=O — lower, 0.2%
- CCCCCCCCCCCCCC=CC=C(C=NOCC(=O)NCCCC[C@@H](NC(=O)CNC(=O)[C@@H](CO)NC(=O)CNC(=O)[C@@H](CCCNC(=N)N)NC(=O)CNC(=O)[C@@H](Cc1ccc(O)cc1)NC(=O)CNC(=O)[C@@H](CO)NC(=O)CNC(=O)[C@@H](CCCCNC(=O)CCCC[C@@H]1SC[C@@H]2NC(=O)N[C@@H]21)NC(=O)[C@H](N)Cc1cn(CCCCCCNC(=O)c2ccc(-c3c4ccc(=N)c(S(=O)(=O)O)c-4oc4c(S(=O)(=O)O)c(N)ccc34)c(C(=O)O)c2)nn1)C(N)=O)NC(=O)CCCCC — lower, 5.8%
